Laboratory results: ChEMBL document CHEMBL1139472, “Synthesis of N-{4-[(2,4-diamino-5-methyl-4,7-dihydro-3H-pyrrolo[2,3-d]pyrimidin-6-yl)thio]benzoyl}-L-glutamic acid and N-{4-[(2-amino-4-oxo-5-methyl-4,7-dihydro-3H-pyrrolo[2,3-d]pyrimidin-6-yl)thio]benzoyl}-L-glutamic acid as dual inhibitors of dihydrofolate reductase and thymidylate synthase and …” (J Med Chem, 2005)

How the values were obtained:
[1] = tested on: CCRF-CEM; experiment: Protection against 4000 nM N-{4-[(2,4-diamino-5-methyl-4, 7-dihydro-3H-pyrrolo[2,3-d]pyr imidin-6-yl)thio]benzoyl}-L-gl utamic acid-induced growth inhibition in human CCRF-CEM cells assessed as growth at 5 uM relative to control; assay type: functional; design: scale not given: the % may be the effect or the level left
[2] = tested on: CCRF-CEM; experiment: Protection against 40 nM methotrexate-induced growth inhibition in human CCRF-CEM cells assessed as growth at 5 uM relative to control; assay type: functional; design: scale not given: the % may be the effect or the level left
[3] = target: T1, Dihydrofolate reductase (Escherichia coli, UniProt P0ABQ4)
T1 sequence (P0ABQ4 whole entry): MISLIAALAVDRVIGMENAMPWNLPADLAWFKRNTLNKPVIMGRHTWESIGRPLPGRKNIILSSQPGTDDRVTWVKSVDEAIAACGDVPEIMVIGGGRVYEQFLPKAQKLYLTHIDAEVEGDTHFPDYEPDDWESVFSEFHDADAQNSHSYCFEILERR
Description: Inhibition of Escherichia coli DHFR

[4] = target: Dihydrofolate reductase (Homo sapiens, UniProt P00374)
[5] = tested on: CCRF-CEM; experiment: cells; settings: Homo sapiens, 120 h
[6] = target: T2, Bifunctional dihydrofolate reductase-thymidylate synthase (Toxoplasma gondii, UniProt Q07422); experiment: Inhibition of Toxoplasma gondii thymidylate synthase
T2 sequence (Q07422 whole entry): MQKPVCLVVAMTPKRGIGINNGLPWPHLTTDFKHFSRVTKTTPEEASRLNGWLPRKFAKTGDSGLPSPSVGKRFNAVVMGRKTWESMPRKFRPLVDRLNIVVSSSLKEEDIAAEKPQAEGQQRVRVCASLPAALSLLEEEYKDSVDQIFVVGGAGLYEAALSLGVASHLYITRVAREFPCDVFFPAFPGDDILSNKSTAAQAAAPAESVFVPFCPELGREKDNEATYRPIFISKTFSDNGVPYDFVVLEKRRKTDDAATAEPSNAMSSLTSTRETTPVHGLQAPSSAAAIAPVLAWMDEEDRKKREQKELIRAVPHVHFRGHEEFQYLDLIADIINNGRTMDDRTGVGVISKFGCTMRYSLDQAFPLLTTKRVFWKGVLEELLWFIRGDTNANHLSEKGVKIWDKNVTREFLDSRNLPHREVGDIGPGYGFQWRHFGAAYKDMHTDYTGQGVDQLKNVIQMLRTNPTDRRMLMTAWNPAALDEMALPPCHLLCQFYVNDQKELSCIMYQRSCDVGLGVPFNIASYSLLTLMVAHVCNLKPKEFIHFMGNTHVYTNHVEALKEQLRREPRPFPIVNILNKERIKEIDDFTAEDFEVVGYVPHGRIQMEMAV

[7] = target: T2, Bifunctional dihydrofolate reductase-thymidylate synthase; experiment: Inhibition of Toxoplasma gondii DHFR
[8] = tested on: CCRF-CEM; experiment: cells; settings: Homo sapiens, 120 h; remark: listed apart in the source
[9] = tested on: CCRF-CEM; experiment: cells; settings: Homo sapiens
Description: Growth inhibition of human CCRF-CEM cells

[10] = tested on: CCRF-CEM; experiment: cells; settings: Homo sapiens, 120 h; remark: listed apart in the source
[11] = target: Thymidylate synthase (Homo sapiens, UniProt P04818)
Description: Inhibition of human thymidylate synthase

[12] = target: Thymidylate synthase (Escherichia coli, UniProt C3SWJ7); experiment: Inhibition of Escherichia coli thymidylate synthase
[13] = tested on: CCRF-CEM; experiment: Cell growth in human CCRF-CEM cells at 20 nM relative to control; assay type: functional
[14] = tested on: CCRF-CEM; experiment: Cell growth in human CCRF-CEM cells at 40 nM relative to control; assay type: functional
[15] = tested on: CCRF-CEM; experiment: Protection of drug-induced growth inhibition by 1 uM leucovorin in human CCRF-CEM cells assessed as growth at 20 nM relative to control; assay type: functional; design: scale not given: the % may be the effect or the level left
[16] = tested on: CCRF-CEM; experiment: Protection of drug-induced growth inhibition by 0.1 uM leucovorin in human CCRF-CEM cells assessed as growth at 20 nM relative to control; assay type: functional; design: scale not given: the % may be the effect or the level left
[17] = tested on: CCRF-CEM; experiment: Protection of drug-induced growth inhibition by 10 uM leucovorin in human CCRF-CEM cells assessed as growth at 20 nM relative to control; assay type: functional; design: scale not given: the % may be the effect or the level left

Thymidylate synthase (Homo sapiens, UniProt P04818), sequence (P04818 whole entry): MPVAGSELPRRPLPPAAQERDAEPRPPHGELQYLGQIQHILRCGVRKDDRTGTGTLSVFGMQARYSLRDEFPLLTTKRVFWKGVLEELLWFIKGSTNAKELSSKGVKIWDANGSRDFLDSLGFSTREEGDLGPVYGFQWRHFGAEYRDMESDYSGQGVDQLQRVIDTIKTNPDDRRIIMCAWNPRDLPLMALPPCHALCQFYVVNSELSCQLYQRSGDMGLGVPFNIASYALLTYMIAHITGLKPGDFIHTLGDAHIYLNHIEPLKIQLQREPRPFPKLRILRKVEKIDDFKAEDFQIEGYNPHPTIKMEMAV
Thymidylate synthase (Escherichia coli, UniProt C3SWJ7), sequence (C3SWJ7 whole entry): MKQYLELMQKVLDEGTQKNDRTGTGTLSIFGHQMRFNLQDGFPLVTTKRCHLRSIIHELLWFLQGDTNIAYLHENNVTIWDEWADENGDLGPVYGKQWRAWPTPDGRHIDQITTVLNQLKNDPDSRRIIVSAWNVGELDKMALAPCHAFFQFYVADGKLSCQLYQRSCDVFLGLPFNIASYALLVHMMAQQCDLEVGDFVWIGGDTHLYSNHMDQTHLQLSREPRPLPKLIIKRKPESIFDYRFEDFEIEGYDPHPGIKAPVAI
Dihydrofolate reductase (Homo sapiens, UniProt P00374), sequence (P00374 whole entry): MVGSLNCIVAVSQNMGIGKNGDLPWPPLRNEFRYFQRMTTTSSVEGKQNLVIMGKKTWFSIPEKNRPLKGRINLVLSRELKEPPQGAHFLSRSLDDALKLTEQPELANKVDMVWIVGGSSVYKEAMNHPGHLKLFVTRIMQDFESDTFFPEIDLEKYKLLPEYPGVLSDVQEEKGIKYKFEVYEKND

Cc1cn([C@H]2C[C@H](O)[C@@H](CO)O2)c(=O)[nH]c1=O [DOXRIBTIMINE]
Activity [1]: 20%
Activity [2]: 18%

Cc1nc2ccc(CN(C)c3ccc(C(=O)N[C@@H](CCC(=O)O)C(=O)O)s3)cc2c(=O)[nH]1 [RALTITREXED]
IC50 [3]: 23 µM

Cc1c(Sc2ccc(C(=O)N[C@@H](CCC(=O)O)C(=O)O)cc2)[nH]c2nc(N)[nH]c(=O)c12
IC50 [4]: > 240 µM
EC50 [5]: > 20 µM
IC50 [6]: 3.6 µM
IC50 [7]: 2200 nM
EC50 [8]: > 20 µM
EC50 [9]: > 20 µM
EC50 [10]: > 20 µM
IC50 [11]: 100 µM
IC50 [3]: > 240 µM
IC50 [12]: > 180 µM

CN(Cc1cnc2nc(N)nc(N)c2n1)c1ccc(C(=O)N[C@@H](CCC(=O)O)C(=O)O)cc1 [METHOTREXATE]
Activity [13]: 5%
Activity [14]: 12%
Activity [15]: 96%
Activity [16]: 90%
Activity [17]: 95%
